System: P23H rhodopsin in Rho^P23H/P23H mice
Assay: Retinal immunoblotting of P23H rhodopsin after IVI in Rho^P23H/P23H mice
Format: in vivo, mouse
Conditions: IVI 25 pmol at PND 15; 24, 48 and 72 h; vs PBS; data not shown
Method: Cells were seeded in 6-well plates at a density of 5×10^5 cells/well and cultured at 37° C. with 5% CO2 for 17 h. The medium was replaced with a fresh medium containing a corresponding concentration of compounds. After treatment for 24 h, cells collected and lysed in 150 μL PBS containing 0.1% SDS and complete protease inhibitor cocktail with 12 s of sonication on ice. Retina samples were lysed in 300 μL per retina of PBS containing 0.1% SDS and complete protease inhibitor cocktail under 24 s of sonication on ice. Protein concentrations were determined by measurements of OD280 nm using a Nanodrop spectrometer. To immunoblot rhodopsin, one hundred μg of total protein for NIH3T3 (RHO^P23H/GFP) cells, or twenty μg of total protein for NIH3T3 (RHO^WT/GFP) cells was loaded per well onto an SDS-PAGE gel. To detect other proteins, fifty μg of total protein was loaded per well. After separation by electrophoresis in 10% and 16% SDS-PAGE gels, proteins were transferred to a nitrocellulose membrane using a wet membrane electrotransfer cassette followed by blocking with 5% bovine serum albumin in PBS containing 0.05% Tween 20 for 1 h. The membranes were incubated with primary antibodies at 4° C. overnight following with appropriate secondary antibodies for 1 h at room temperature. […]

Compound: CN(Cc1cnc2nc(N)nc(N)c2n1)c1ccc(C(=O)N[C@@H](CCC(=O)O)C(=O)O)cc1 [CL-009, N-[4-[[(2,4-diamino-6-pteridinyl)methyl]methylamino]benzoyl]-L-glutamic acid]
- P23H rhodopsin level by retinal immunoblotting: did not see consistently and statistically significant difference

— patent US12678440B2, “Compositions and methods for treating misfolded protein ocular disorders” (CASE WESTERN RESERVE UNIVERSITY, priority 2020, dated 2026)
